Literature values in patent US9625473B2, “Cytokine biomarkers as predictive biomarkers of clinical response for glatiramer acetate” (TEVA PHARMACEUTICAL INDUSTRIES LTD., priority 2010, dated 2017).

Legend:
PBMC = conditions: GA-treated vs. untreated patients
IL-4 = conditions: after stimulation with GA, mediated predominantly by CD4 cells, GA-treated vs. untreated patients
IFN-gamma = conditions: after stimulation with high GA concentrations, partially mediated by CD8 cells, GA-treated vs. untreated patients

**Q.** With Glatiramer acetate [GA] as the substance, how does the “number of relapses, compared with placebo” value (RRMS subjects; RRMS subjects, GA 20 mg/day, three double-blind placebo-controlled studies) read?
**A.** Its value is “significant reduction”.

**Q.** What about the tolerability (RRMS subjects; daily standard dose of 20 mg) of the same substance?
**A.** The tolerability was “generally well tolerated”.

**Q.** And the relapse rate reduction (RRMS subjects; largest controlled study, GA 20 mg vs placebo)?
**A.** The relapse rate reduction was 32%.

**Q.** And the relapse rate (RRMS subjects; largest controlled study, under GA 20 mg)?
**A.** The relapse rate was 1.34.

**Q.** And the “median cumulative number of Gd-enhancing lesions” value (RRMS subjects; over 9 months of treatment, 20 mg group, MRI)?
**A.** The value was 11 lesions.

**Q.** And the “GA-induced PBMC proliferation” value (PBMC)?
**A.** The value was “significant reduction”.

**Q.** What about the “IL-4 ELISPOT response” value (IL-4) of the same substance?
**A.** Its value is “positive”.

**Q.** What about the IFN-gamma response (IFN-gamma) of the same substance?
**A.** The IFN-gamma response was “elevated”.
